# In ChEMBL document CHEMBL1136230, “Antiallergic principles from Alpinia galanga: structural requirements of phenylpropanoids for inhibition of degranulation and release of TNF-alpha and IL-4 in RBL-2H3 cells” (Bioorg Med Chem Lett, 2003):
# pIC50: −log10 of the molar value.
# Tested on: Mus musculus
# Assay: In vivo inhibitory activity against leakage of dye on ear PCA reaction 30 min after 6.25 mg/kg oral administration in mice
# Type: functional
# Parameters: scale not given: the % may be the effect or the level left
# Details: not given
row,Structure (SMILES),Control [%]
1,C=C[C@H](OC(C)=O)c1ccc(OC(C)=O)cc1 [1'-ACETOXYCHAVICOL ACETATE],72.4
2,C=C[C@H](OC(C)=O)c1ccc(OC(C)=O)c(OC)c1,65.2

# Tested on: Mus musculus
# Assay: In vivo inhibitory activity against leakage of dye on ear PCA reaction 30 min after 50 mg/kg oral administration in mice
# Type: functional
# Parameters: scale not given: the % may be the effect or the level left
# Details: not given
row,Structure (SMILES),Control [%]
1,C=C[C@H](OC(C)=O)c1ccc(OC(C)=O)cc1 [1'-ACETOXYCHAVICOL ACETATE],44.3
2,C=C[C@H](OC(C)=O)c1ccc(OC(C)=O)c(OC)c1,37.8

# Tested on: RBL-2H3
# Assay: Percentage inhibition against antigen-induced IL-4 production in RBL-2H3 cells at 3 uM concentration
# Type: functional
# Details: Rattus norvegicus
row,Structure (SMILES),inhibition at 3 µM [%]
1,C=C[C@H](OC(C)=O)c1ccc(OC(C)=O)cc1 [1'-ACETOXYCHAVICOL ACETATE],39.4
2,O=c1cc(-c2ccc(O)c(O)c2)oc2cc(O)cc(O)c12 [LUTEOLIN],41.6
3,C=C[C@H](OC(C)=O)c1ccc(OC(C)=O)c(OC)c1,39.4

# Tested on: RBL-2H3
# Assay: Percentage inhibition against antigen-induced TNF-alpha production in RBL-2H3 cells at 3 uM concentration
# Type: functional
# Details: Rattus norvegicus
row,Structure (SMILES),inhibition at 3 µM [%]
1,C=C[C@H](OC(C)=O)c1ccc(OC(C)=O)cc1 [1'-ACETOXYCHAVICOL ACETATE],5.4
2,O=c1cc(-c2ccc(O)c(O)c2)oc2cc(O)cc(O)c12 [LUTEOLIN],25
3,C=C[C@H](OC(C)=O)c1ccc(OC(C)=O)c(OC)c1,25

# Tested on: RBL-2H3
# Assay: Percentage inhibition against antigen-induced IL-4 production in RBL-2H3 cells at 0 uM concentration
# Type: functional, Rattus norvegicus
# Details: not given
row,Structure (SMILES),Inhibition [%]
1,C=C[C@H](OC(C)=O)c1ccc(OC(C)=O)cc1 [1'-ACETOXYCHAVICOL ACETATE],0
2,O=c1cc(-c2ccc(O)c(O)c2)oc2cc(O)cc(O)c12 [LUTEOLIN],0
3,C=C[C@H](OC(C)=O)c1ccc(OC(C)=O)c(OC)c1,0

# Tested on: Mus musculus
# Assay: In vivo inhibitory activity against leakage of dye on ear PCA reaction 30 min after 200 mg/kg oral administration in mice
# Type: functional
# Parameters: scale not given: the % may be the effect or the level left
# Details: not given
row,Structure (SMILES),Control [%]
1,COc1ccc(/C=C/C(=O)Nc2ccccc2C(=O)O)cc1OC [TRANILAST],49.8

# Tested on: RBL-2H3
# Assay: Percentage inhibition against antigen-induced TNF-alpha production in RBL-2H3 cells at 10 uM concentration
# Type: functional
# Details: Rattus norvegicus
row,Structure (SMILES),inhibition at 10 µM [%]
1,C=C[C@H](OC(C)=O)c1ccc(OC(C)=O)cc1 [1'-ACETOXYCHAVICOL ACETATE],32.4
2,O=c1cc(-c2ccc(O)c(O)c2)oc2cc(O)cc(O)c12 [LUTEOLIN],89
3,C=C[C@H](OC(C)=O)c1ccc(OC(C)=O)c(OC)c1,89

# Tested on: RBL-2H3
# Assay: Percentage inhibition against antigen-induced IL-4 production in RBL-2H3 cells at 10 uM concentration
# Type: functional
# Details: Rattus norvegicus
row,Structure (SMILES),inhibition at 10 µM [%]
1,C=C[C@H](OC(C)=O)c1ccc(OC(C)=O)cc1 [1'-ACETOXYCHAVICOL ACETATE],45.9
2,O=c1cc(-c2ccc(O)c(O)c2)oc2cc(O)cc(O)c12 [LUTEOLIN],89.4
3,C=C[C@H](OC(C)=O)c1ccc(OC(C)=O)c(OC)c1,45.9

# Tested on: RBL-2H3
# Assay: Percentage inhibition against antigen-induced TNF-alpha production in RBL-2H3 cells at 0 uM concentration
# Type: functional, Rattus norvegicus
# Details: not given
row,Structure (SMILES),Inhibition [%]
1,C=C[C@H](OC(C)=O)c1ccc(OC(C)=O)cc1 [1'-ACETOXYCHAVICOL ACETATE],0
2,O=c1cc(-c2ccc(O)c(O)c2)oc2cc(O)cc(O)c12 [LUTEOLIN],0
3,C=C[C@H](OC(C)=O)c1ccc(OC(C)=O)c(OC)c1,0

# Tested on: RBL-2H3
# Assay: Percentage inhibition against antigen-induced TNF-alpha production in RBL-2H3 cells at 100 uM concentration
# Type: functional
# Details: Rattus norvegicus
row,Structure (SMILES),inhibition at 100 µM [%]
1,C=C[C@H](OC(C)=O)c1ccc(OC(C)=O)cc1 [1'-ACETOXYCHAVICOL ACETATE],87.2

# Tested on: RBL-2H3
# Assay: Percentage inhibition against release of beta-hexosaminidase from RBL-2H3 cells at 100 uM from control
# Type: functional
# Details: Rattus norvegicus
row,Structure (SMILES),inhibition at 100 µM [%]
1,C=C[C@H](O)c1ccc(OC(C)=O)cc1,4
2,C=CCc1ccc(OC)c(OC)c1 [METHYLEUGENOL],1
3,CC(=O)OC/C=C/c1ccc(OC(C)=O)cc1,21
4,C=CCc1ccc(O)c(O)c1 [HYDROXYCHAVICOL],17
5,C=CCc1ccc(OC(C)=O)cc1,11
6,CC(=O)OC/C=C/c1ccc(O)cc1,6
7,C=CCc1ccc(O)c(OC)c1 [EUGENOL],4
8,OC/C=C/c1ccc(O)cc1,2
9,C=C[C@H](OC(C)=O)c1ccccc1,9
10,C=C[C@H](O)c1ccccc1,3
11,O=C(O)/C=C/c1ccccc1 [CINNAMIC ACID],7
12,O=C(O)/C=C/c1ccccc1O [O-COUMARIC ACID],11
13,O=C(O)/C=C/c1ccc(O)c(O)c1 [CAFFEIC ACID],5
14,COc1ccc(/C=C/C(=O)O)cc1 [4-METHOXYCINNAMIC ACID],11
15,C=CCc1ccc(OC(C)=O)c(OC)c1 [EUGENYL ACETATE],9
16,COc1cc(/C=C/C(=O)O)cc(OC)c1O [SINAPINATE],10
17,O=C/C=C/c1ccc(O)cc1 [p-HYDROXYCINNAMALDEHYDE],22
18,O=C(O)/C=C/c1cccc(O)c1,1
19,"COc1ccc(/C=C/C(=O)O)cc1OC [O,O'-DIMETHYLCAFFEIC ACID]",9
20,C=CCc1ccc(O)cc1 [CHAVICOL],3
21,O=C(O)/C=C/c1ccc(O)cc1 [COUMARIC ACID],6
22,C=CCc1ccc(O[C@H]2O[C@@H](CO)[C@H](O)[C@H](O)[C@@H]2O)cc1,0

# Tested on: Mus musculus
# Assay: In vivo inhibitory activity against leakage of dye on ear PCA reaction 30 min after 25 mg/kg oral administration in mice
# Type: functional
# Parameters: scale not given: the % may be the effect or the level left
# Details: not given
row,Structure (SMILES),Control [%]
1,C=C[C@H](OC(C)=O)c1ccc(OC(C)=O)cc1 [1'-ACETOXYCHAVICOL ACETATE],49.5
2,C=C[C@H](OC(C)=O)c1ccc(OC(C)=O)c(OC)c1,54.7

# Tested on: RBL-2H3
# Assay: Inhibitory activity against IL-4 production in RBL-2H3 cells was determined
# Type: functional, cell-based
# Details: Rattus norvegicus
row,Structure (SMILES),pIC50
1,C=C[C@H](OC(C)=O)c1ccc(OC(C)=O)cc1 [1'-ACETOXYCHAVICOL ACETATE],4.92
2,O=c1cc(-c2ccc(O)c(O)c2)oc2cc(O)cc(O)c12 [LUTEOLIN],5.43
3,C=C[C@H](OC(C)=O)c1ccc(OC(C)=O)c(OC)c1,4.92

# Tested on: RBL-2H3
# Assay: Percentage inhibition against antigen-induced IL-4 production in RBL-2H3 cells at 30 uM concentration
# Type: functional
# Details: Rattus norvegicus
row,Structure (SMILES),inhibition at 30 µM [%]
1,C=C[C@H](OC(C)=O)c1ccc(OC(C)=O)cc1 [1'-ACETOXYCHAVICOL ACETATE],98.1
2,O=c1cc(-c2ccc(O)c(O)c2)oc2cc(O)cc(O)c12 [LUTEOLIN],99.2
3,C=C[C@H](OC(C)=O)c1ccc(OC(C)=O)c(OC)c1,98.1

# Tested on: Mus musculus
# Assay: In vivo inhibitory activity against leakage of dye on ear PCA reaction 30 min after 100 mg/kg oral administration in mice
# Type: functional
# Parameters: scale not given: the % may be the effect or the level left
# Details: not given
row,Structure (SMILES),Control [%]
1,COc1ccc(/C=C/C(=O)Nc2ccccc2C(=O)O)cc1OC [TRANILAST],66

# Tested on: RBL-2H3
# Assay: Inhibitory activity against TNF-alpha production in RBL-2H3 cells was determined
# Type: functional, cell-based
# Details: Rattus norvegicus
row,Structure (SMILES),pIC50
1,C=C[C@H](OC(C)=O)c1ccc(OC(C)=O)cc1 [1'-ACETOXYCHAVICOL ACETATE],4.77
2,O=c1cc(-c2ccc(O)c(O)c2)oc2cc(O)cc(O)c12 [LUTEOLIN],5.24
3,C=C[C@H](OC(C)=O)c1ccc(OC(C)=O)c(OC)c1,5.24

# Tested on: Mus musculus
# Assay: In vivo inhibitory activity against leakage of dye on ear PCA reaction 30 min after 12.5 mg/kg oral administration in mice
# Type: functional
# Parameters: scale not given: the % may be the effect or the level left
# Details: not given
row,Structure (SMILES),Control [%]
1,C=C[C@H](OC(C)=O)c1ccc(OC(C)=O)cc1 [1'-ACETOXYCHAVICOL ACETATE],65.5
2,C=C[C@H](OC(C)=O)c1ccc(OC(C)=O)c(OC)c1,58.4

# Tested on: RBL-2H3
# Assay: Percentage inhibition against antigen-induced IL-4 production in RBL-2H3 cells at 100 uM concentration
# Type: functional
# Details: Rattus norvegicus
row,Structure (SMILES),inhibition at 100 µM [%]
1,C=C[C@H](OC(C)=O)c1ccc(OC(C)=O)cc1 [1'-ACETOXYCHAVICOL ACETATE],99.9
2,C=C[C@H](OC(C)=O)c1ccc(OC(C)=O)c(OC)c1,99.9

# Tested on: RBL-2H3
# Assay: Inhibitory activity against release of beta-hexosaminidase from RBL-2H3 cells
# Type: functional, cell-based
# Details: Rattus norvegicus
row,Structure (SMILES),pIC50
1,CC(=O)OC/C=C/c1ccc(OC(C)=O)cc1,< 4.00
2,C=CCc1ccc(O)c(O)c1 [HYDROXYCHAVICOL],< 4.00
3,CC[C@H](OC(C)=O)c1ccc(OC(C)=O)cc1,4.22
4,C=C[C@H](OC(C)=O)c1ccc(OC(C)=O)cc1 [1'-ACETOXYCHAVICOL ACETATE],4.82
5,O=C/C=C/c1ccc(O)cc1 [p-HYDROXYCINNAMALDEHYDE],< 4.00
6,C=C[C@H](OC(C)=O)c1ccc(OC(C)=O)c(OC)c1,4.72

# Tested on: RBL-2H3
# Assay: Percentage inhibition against antigen-induced TNF-alpha production in RBL-2H3 cells at 30 uM concentration
# Type: functional
# Details: Rattus norvegicus
row,Structure (SMILES),inhibition at 30 µM [%]
1,C=C[C@H](OC(C)=O)c1ccc(OC(C)=O)cc1 [1'-ACETOXYCHAVICOL ACETATE],66.9
2,O=c1cc(-c2ccc(O)c(O)c2)oc2cc(O)cc(O)c12 [LUTEOLIN],101
3,C=C[C@H](OC(C)=O)c1ccc(OC(C)=O)c(OC)c1,101

# Tested on: Mus musculus
# Assay: In vivo inhibitory activity against leakage of dye on ear PCA reaction 30 min after 400 mg/kg oral administration in mice
# Type: functional
# Parameters: scale not given: the % may be the effect or the level left
# Details: not given
row,Structure (SMILES),Control [%]
1,COc1ccc(/C=C/C(=O)Nc2ccccc2C(=O)O)cc1OC [TRANILAST],42.7
